Reference: patent US20240342071A1, “HEXAPEPTIDE,COSMETIC COMPOSITION OR PHARMACEUTICAL COMPOSITION CONTAINING SAME, AND USE OF HEXAPEPTIDE” (SHENZHEN WINKEY TECHNOLOGY CO., LTD, priority 2021, published 2024)

Tests used:
HaCaT cells = experiment: Cell viability assay (MTT) on HaCaT cells; assay type: cell-based, Human; settings: 72 h; for toxicity to HaCaT cells: 100 ppm, compared with the control group
From the text: Phosphate-buffered saline (PBS) (Gibco), thiazolyl blue (MTT) (Sigma), dimethyl sulfoxide (DMSO) (Sigma), a high glucose culture medium (DMEM) (Gibco), and fetal bovine serum (Gibco).
Human keratinocytes (HaCaT) were purchased from the Kunming Cell Bank of China Center for Type Culture Collection under the Chinese Academy of Sciences.
The peptide Ac-Phe-Phe-Trp-Phe-His-Val-NH2 (hereinafter referred to as the reference peptide) at a test concentration of 1 ppm, 10 ppm, 50 ppm, and 100 ppm respectively; • the peptide (5) at a test concentration of 1 ppm, 10 ppm, 50 ppm, and 100 ppm, respectively; • the peptide (11) at a test concentration of 1 ppm, 10 ppm, 50 ppm, and 100 ppm, respectively; • the peptide (17) at a test concentration of 1 ppm, 10 ppm, 50 ppm, and 100 ppm, respectively. Control group: • PBS blank control.
The frozen HaCaT cells were cultured and passaged at a ratio of 1:2 to about the 5th generation, and the cells in better growth were selected as experiment subjects.
The cells were inoculated in a 96-well plate at 2000 cells/well. After the cells adhered to the wall, samples of the drug groups and the control group were added according to the multiple dilution method, supplemented with a culture medium to 200 μL, and incubated in a 5% CO2 incubator at 37° C. for 72 h.
Then 22 μL 5 mg/ml MTT was added to each well and the incubation was continued in the 5% CO2 incubator at 37° C. for 4 h. The original solution was removed and 150 μL/well DMSO was added. After 5 min, the microplate reader was used to read the reference OD values at 490 nm and 630 nm wavelengths.
The MTT assay is a method of detecting cell survival and growth. The control group is taken as a reference value. Four dosage concentrations were set from high to low for each sample, and cell viability assays were carried out on HaCaT cells. The measured OD values are directly proportional to cell viability.

IL-6 = experiment: Anti-inflammatory cell assay: IL-6 ELISA in LPS-stimulated RAW 264.7 cells; assay type: cell-based, Mouse; settings: 100 ppm, 200 ng/mL LPS, RAW 264.7, 48 h, vs LPS alone
Experimental: (§1) Fetal bovine serum, DMEM culture medium, penicillin, streptomycin, an IL-6 ELISA kit and a TNF-α ELISA kit.
(§2) Mouse monocyte macrophages (RAW 264.7 cells).
(§3) 100 ppm of the reference peptide, 100 ppm of the peptide (5), 100 ppm of the peptide (11), and 100 ppm of the peptide (17); the peptides were dissolved with a PBS solution, respectively.
(§4) The frozen RAW 264.7 cells were cultured and passaged at a ratio of 1:2 to about the 5th generation, and the cells in better growth were selected as experiment subjects.
(§5) A cell suspension was diluted properly and inoculated on a 6-well plate at 100,000 cells/well. When the cells were about 80% confluent, an LPS-stimulated inflammation model was established. A blank control group (control), a LPS group, a dexamethasone group (DXM), and polypeptide groups were set. The blank control group was supplemented with the culture medium to 1000 μL; in the LPS group, 200 ng/mL LPS was added, and supplemented with the culture medium to 1000 μL; in the dexamethasone group, 200 ng/mL LPS and 50 ng/ml dexamethasone were added, and supplemented with the culture medium to 1000 μL; in the polypeptide groups, 200 ng/mL LPS and a polypeptide were added, and supplemented with culture medium to 1000 μL (the final test concentration of the polypeptide was 100 ppm). The above groups were further incubated in a 5% CO2 incubator at 37° C. for 48 h. The solutions were centrifuged at 3000 rpm for 15 min, in each of which a cell supernatant was collected to obtain a sample liquid. Operations were performed according to the instructions of the IL-6 and TNF-α ELISA kits.
(§6) Inflammatory factors such as TNF-α and IL-6 can cause the body's immune overresponse, leading to skin ulcers, redness and other problems. Therefore, inhibiting inflammatory factors such as TNF-α and IL-6 secreted by monocytes in the skin can achieve anti-inflammatory and repairing effects. An inflammation model was established by stimulating RAW 264.7 cells with 200 ng/mL LPS to investigate the anti-inflammatory and repairing effects of the peptides of the present invention.

TNF-α = experiment: Anti-inflammatory cell assay: TNF-α ELISA in LPS-stimulated RAW 264.7 cells; assay type: cell-based, Mouse; settings: 200 ng/mL LPS; for effect on TNF-α expression compared with the positive drug dexamethasone: 100 ppm peptide vs 50 ng/ml dexamethasone, RAW 264.7; for TNF-α expression: 100 ppm, RAW 264.7, 48 h, vs LPS alone
Experimental: as §1, §2, §3, §4, §5, §6

Row | Substance | toxicity to HaCaT cells (HaCaT cells) | expression of IL-6 (IL-6) | effect on TNF-α expression compared with the positive drug dexamethasone (TNF-α) | TNF-α expression (TNF-α) | proliferation effects on cells (HaCaT cells; HaCaT, 50 ppm)
1 | Ac-FFWFHG-NH2 [peptide (17), Ac-Phe-Phe-Trp-Phe-His-Gly-NH2] | no toxicity | significantly down-regulated | equivalent to that of the positive drug dexamethasone, or having even more excellent effects than dexamethasone | significantly down-regulated | 
2 | Ac-FFWFHL-NH2 [peptide (11), Ac-Phe-Phe-Trp-Phe-His-Leu-NH2] | no toxicity | significantly down-regulated | equivalent to that of the positive drug dexamethasone, or having even more excellent effects than dexamethasone | significantly down-regulated | 
3 | Ac-FFWFHV-NH2 [reference peptide, Ac-Phe-Phe-Trp-Phe-His-Val-NH2, reference compound] | no toxicity | significantly down-regulated | equivalent to that of the positive drug dexamethasone, or having even more excellent effects than dexamethasone | significantly down-regulated | significant proliferation effects
4 | Ac-FFWFKV-NH2 [peptide (5), Ac-Phe-Phe-Trp-Phe-Lys-Val-NH2] | no toxicity |  |  |  | 
